Measurements reported in patent US4826966A, “Radioiodinated branched carbohydrates” (The United States of America as represented by the United …, priority 1988, dated 1989).

Experiment: Distribution of radioactivity in tissues of female rats after intravenous administration
Assay type: in vivo
Details: for Distribution of radioactivity in brain / Distribution of radioactivity in thyroid: no unit in table; for Distribution of radioactivity in brain: b28 gives percent dose/g; for Distribution of radioactivity in thyroid: percent
Method: The distribution of radioactivity in tissues of female rats at 5 minutes, 15 minutes, 30 minutes and 60 minutes after intravenous administration of the iodinated compound is shown in the following table. The level of accumulation of radioactivity in the brain after injection of this agent was a significant 1.65 percent dose/g at 5 minutes but the blood levels were also high resulting in blood ratios of 1.6/1 at 5 minutes.

[1] = 1 h (head printed 1 HT/R), intravenous

Distribution of radioactivity in brain (5 min, intravenous): 1.6525
Distribution of radioactivity in thyroid (5 min, intravenous): 20.6441
blood levels (5 minutes, intravenous, in words): high
Distribution of radioactivity in thyroid (15 min, intravenous): 18.9149
Distribution of radioactivity in thyroid (30 min, intravenous): 25.7085
Distribution of radioactivity in brain [1]: 0.7237
Distribution of radioactivity in thyroid [1]: 33.4920
brain retention compared with the peak uptake at 5 minutes (60 minutes vs 5 minutes, intravenous): 50%
accumulation of activity in the thyroid (60 minutes, intravenous): 33.5%
retention in the brain (in words) (up to 60 minutes, intravenous): prolonged retention in the brain
Structure (SMILES): CO[C@@H]1O[C@H](COC(C)=O)[C@@H](OC(C)=O)[C@@H](OC(C)=O)[C@@H]1/C=C/[125I] [methyl-2-deoxy-2-(E)-[^125 I]-iodovinyl-2,4,6-O-triacetyl-β-D-altropyranoside]
stability to in vivo deiodination (from thyroid accumulation at 60 minutes, in words): demonstrated the stability of this agent to in vivo deiodination
